{"source": "patent US20230398240A1", "about": "“THERAPEUTIC RADIOLABELLED CONJUGATES AND THEIR USE IN THERAPY” (priority 2020, published 2023)", "origin": "cited, not measured here", "key": {"[1]": {"system": "quiescent endothelial cells", "settings": "in vitro"}}, "data": [{"smiles": "N[C@@H](CCC(=O)N[C@@H](CSCC(=O)Nc1ccc([As](O)O)cc1)C(=O)NCC(=O)O)C(=O)O", "note": "[GSAO, 4-(N—(S-glutathionylacetyl)amino)phenylarsenous acid]", "values": [{"measurement": "effect on angiogenesis in vivo", "setting": "angiogenesis", "value": "inhibits angiogenesis in vivo"}, {"measurement": "toxicity to quiescent endothelial cells", "setting": "[1]", "value": "nontoxic to quiescent endothelial cells"}, {"measurement": "toxicity to proliferating cells", "setting": "proliferating cells", "value": "toxic to proliferating cells"}]}]}
